Experimental data as given in ChEMBL document CHEMBL4507259 (2021).

Assays:
[1] = molecular target: T1, Calcitonin-gene-related peptide receptor, CALCRL/RAMP1 (Homo sapiens) (UniProt O60894+Q16602); assay: CGRP (h) CEREP ligand profiling; assay type: protein-complex assay; conditions: filed as agonist, Compound concentration 10.0 uM
SU-DHL-8 = assay: SuDHL8 cell line Proliferation assay; assay type: functional, Homo sapiens; conditions: Compound concentration 10 uM; time 3 day
OPM-2 = assay: OPM-2 cell line Proliferation assay; assay type: functional, Homo sapiens; conditions: Compound concentration 10 uM; time 3 day
BJAB = assay: BJAB cell line Proliferation assay; assay type: functional, Homo sapiens; conditions: Compound concentration 10 uM; time 3 day
RPMI-8226 = assay: RPMI-8226 cell line Proliferation assay; assay type: functional, Homo sapiens; conditions: Compound concentration 10 uM; time 3 day
Rec1 = assay: REC1 cell line Proliferation assay; assay type: functional, Homo sapiens; conditions: Compound concentration 10 uM; time 3 day
RL = assay: RL cell line Proliferation assay; assay type: functional, Homo sapiens; conditions: Compound concentration 10 uM; time 3 day
MDA-MB-157 = assay: MDA_MB_157 cell line Proliferation assay; assay type: functional, Homo sapiens; conditions: Compound concentration 10 uM; time 5 day
Hs 294T = assay: Hs294T cell line Proliferation assay; assay type: functional, Homo sapiens; conditions: Compound concentration 10 uM; time 5 day
[2] = molecular target: Delta-type opioid receptor (Homo sapiens) (UniProt P41143); conditions: Compound concentration 10.0 uM
Delta-type opioid receptor (Homo sapiens), sequence (P41143 whole entry): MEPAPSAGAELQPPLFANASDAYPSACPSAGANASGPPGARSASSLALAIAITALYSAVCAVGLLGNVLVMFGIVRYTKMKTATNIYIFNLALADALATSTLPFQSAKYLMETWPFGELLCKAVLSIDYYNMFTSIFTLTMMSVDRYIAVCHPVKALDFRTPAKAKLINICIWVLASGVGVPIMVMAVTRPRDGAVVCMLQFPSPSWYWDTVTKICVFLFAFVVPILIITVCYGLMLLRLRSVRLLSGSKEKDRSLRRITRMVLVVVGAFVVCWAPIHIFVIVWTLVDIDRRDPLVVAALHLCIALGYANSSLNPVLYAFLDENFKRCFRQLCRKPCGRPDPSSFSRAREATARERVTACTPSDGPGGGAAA

Jurkat = assay: Jurkat cell line Proliferation assay; assay type: functional, Homo sapiens; conditions: Compound concentration 10 uM; time 3 day
HT = assay: HT cell line Proliferation assay; assay type: functional, Homo sapiens; conditions: Compound concentration 10 uM; time 3 day
[3] = molecular target: T2, 5-hydroxytryptamine receptor 3A (Homo sapiens) (UniProt P46098); conditions: Compound concentration 10.0 uM
T2 sequence (whole entry): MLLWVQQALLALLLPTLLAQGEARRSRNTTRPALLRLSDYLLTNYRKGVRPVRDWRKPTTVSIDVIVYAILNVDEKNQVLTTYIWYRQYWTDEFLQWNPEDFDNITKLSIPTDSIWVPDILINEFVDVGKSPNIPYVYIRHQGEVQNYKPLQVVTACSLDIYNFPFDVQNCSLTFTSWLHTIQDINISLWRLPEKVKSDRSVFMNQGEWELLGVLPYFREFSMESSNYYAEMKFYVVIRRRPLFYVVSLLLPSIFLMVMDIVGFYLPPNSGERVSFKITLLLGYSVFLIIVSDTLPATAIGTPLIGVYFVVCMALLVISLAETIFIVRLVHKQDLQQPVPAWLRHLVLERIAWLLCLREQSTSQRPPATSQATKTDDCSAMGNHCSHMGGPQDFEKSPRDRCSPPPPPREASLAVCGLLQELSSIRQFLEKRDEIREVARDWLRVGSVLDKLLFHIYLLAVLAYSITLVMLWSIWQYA

WSU-NHL = assay: WSU-NHL cell line Proliferation assay; assay type: functional, Homo sapiens; conditions: Compound concentration 10 uM; time 3 day
[4] = molecular target: 5-hydroxytryptamine receptor 7 (Homo sapiens) (UniProt P34969); conditions: Compound concentration 10.0 uM
NU-DUL-1 = assay: NuDUL1 cell line Proliferation assay; assay type: functional, Homo sapiens; conditions: Compound concentration 10 uM; time 3 day
[5] = molecular target: Beta-2 adrenergic receptor (Homo sapiens) (UniProt P07550); assay: beta 2 (h) CEREP ligand profiling; conditions: filed as agonist, Compound concentration 10.0 uM
Beta-2 adrenergic receptor (Homo sapiens), sequence (P07550 whole entry, looked up): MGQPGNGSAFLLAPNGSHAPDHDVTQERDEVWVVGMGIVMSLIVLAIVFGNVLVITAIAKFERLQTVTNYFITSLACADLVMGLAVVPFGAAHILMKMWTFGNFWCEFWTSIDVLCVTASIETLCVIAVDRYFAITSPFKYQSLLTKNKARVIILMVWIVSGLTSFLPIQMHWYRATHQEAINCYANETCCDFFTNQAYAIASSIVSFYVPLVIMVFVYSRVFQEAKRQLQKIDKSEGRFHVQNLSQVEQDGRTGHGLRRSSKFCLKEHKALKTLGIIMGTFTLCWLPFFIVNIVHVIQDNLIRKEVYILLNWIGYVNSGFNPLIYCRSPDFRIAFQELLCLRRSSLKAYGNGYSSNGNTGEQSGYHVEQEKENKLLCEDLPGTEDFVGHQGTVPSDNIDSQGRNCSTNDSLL

SUD4 = assay: SuDHL4 cell line Proliferation assay; assay type: functional, Homo sapiens; conditions: Compound concentration 10 uM; time 3 day
MDA-MB-453 = assay: MDA_MB_453 cell line Proliferation assay; assay type: functional, Homo sapiens; conditions: Compound concentration 10 uM; time 5 day
Kasumi 1 = assay: Kasumi-1 cell line Proliferation assay; assay type: functional, Homo sapiens; conditions: Compound concentration 10 uM; time 3 day
[6] = molecular target: Histone acetyltransferase KAT6A (Homo sapiens) (UniProt Q92794); assay: MYST3 (HAT) CEREP ligand profiling; conditions: Compound concentration 10.0 uM
Histone acetyltransferase KAT6A (Homo sapiens), sequence (Q92794 whole entry, looked up): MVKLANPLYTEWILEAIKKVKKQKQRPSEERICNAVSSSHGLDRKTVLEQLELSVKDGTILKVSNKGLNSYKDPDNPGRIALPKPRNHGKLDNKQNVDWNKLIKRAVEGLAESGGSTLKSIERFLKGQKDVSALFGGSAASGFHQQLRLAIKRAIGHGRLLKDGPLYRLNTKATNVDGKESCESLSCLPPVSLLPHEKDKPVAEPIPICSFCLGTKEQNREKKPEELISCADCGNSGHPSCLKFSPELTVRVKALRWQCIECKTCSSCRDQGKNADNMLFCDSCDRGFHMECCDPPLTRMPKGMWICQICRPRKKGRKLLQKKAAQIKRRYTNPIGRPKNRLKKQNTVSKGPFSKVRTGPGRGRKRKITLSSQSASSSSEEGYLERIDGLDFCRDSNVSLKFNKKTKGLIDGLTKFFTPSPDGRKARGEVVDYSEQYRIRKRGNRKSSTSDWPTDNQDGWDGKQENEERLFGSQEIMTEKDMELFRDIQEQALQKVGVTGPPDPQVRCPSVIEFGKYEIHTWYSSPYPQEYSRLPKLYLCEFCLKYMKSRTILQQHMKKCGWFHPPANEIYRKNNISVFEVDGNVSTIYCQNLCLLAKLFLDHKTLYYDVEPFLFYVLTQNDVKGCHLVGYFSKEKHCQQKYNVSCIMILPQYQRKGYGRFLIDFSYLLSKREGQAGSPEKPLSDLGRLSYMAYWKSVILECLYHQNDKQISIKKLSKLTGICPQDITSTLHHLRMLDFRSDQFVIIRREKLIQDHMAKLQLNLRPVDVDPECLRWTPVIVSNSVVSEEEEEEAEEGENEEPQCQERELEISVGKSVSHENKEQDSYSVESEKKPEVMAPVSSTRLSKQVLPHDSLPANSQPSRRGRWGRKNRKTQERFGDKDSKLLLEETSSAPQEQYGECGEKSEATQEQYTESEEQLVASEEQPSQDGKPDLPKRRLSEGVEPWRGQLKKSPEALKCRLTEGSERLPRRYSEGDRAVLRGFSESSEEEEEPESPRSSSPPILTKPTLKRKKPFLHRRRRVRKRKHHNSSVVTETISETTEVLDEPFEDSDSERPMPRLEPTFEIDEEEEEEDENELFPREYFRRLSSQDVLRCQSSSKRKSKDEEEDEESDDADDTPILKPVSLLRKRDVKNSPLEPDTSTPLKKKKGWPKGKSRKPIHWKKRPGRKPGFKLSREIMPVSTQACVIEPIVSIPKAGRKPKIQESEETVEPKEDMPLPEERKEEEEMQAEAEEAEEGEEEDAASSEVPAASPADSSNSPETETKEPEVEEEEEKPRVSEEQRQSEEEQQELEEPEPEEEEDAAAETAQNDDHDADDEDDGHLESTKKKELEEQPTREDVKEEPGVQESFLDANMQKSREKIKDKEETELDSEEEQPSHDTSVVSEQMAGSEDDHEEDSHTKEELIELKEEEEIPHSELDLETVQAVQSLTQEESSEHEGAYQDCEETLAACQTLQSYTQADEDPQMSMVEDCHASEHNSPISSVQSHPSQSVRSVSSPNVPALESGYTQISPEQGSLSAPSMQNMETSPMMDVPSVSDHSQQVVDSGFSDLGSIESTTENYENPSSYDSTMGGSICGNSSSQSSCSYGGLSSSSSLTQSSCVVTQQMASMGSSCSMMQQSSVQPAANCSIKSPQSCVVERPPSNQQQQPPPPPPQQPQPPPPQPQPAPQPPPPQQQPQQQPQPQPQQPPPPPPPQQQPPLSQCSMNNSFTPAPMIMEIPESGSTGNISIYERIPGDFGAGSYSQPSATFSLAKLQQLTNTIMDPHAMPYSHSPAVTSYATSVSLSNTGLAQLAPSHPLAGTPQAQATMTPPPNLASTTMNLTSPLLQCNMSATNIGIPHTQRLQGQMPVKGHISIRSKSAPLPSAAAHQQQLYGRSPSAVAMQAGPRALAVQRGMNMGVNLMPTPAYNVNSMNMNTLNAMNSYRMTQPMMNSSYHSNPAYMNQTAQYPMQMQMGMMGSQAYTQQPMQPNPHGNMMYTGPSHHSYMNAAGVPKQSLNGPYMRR

G-361 = assay: G361 cell line Proliferation assay; assay type: functional, Homo sapiens; conditions: Compound concentration 10 uM; time 5 day
DU-4475 = assay: DU4475 cell line Proliferation assay; assay type: functional, Homo sapiens; conditions: Compound concentration 10 uM; time 5 day
[7] = molecular target: Sodium-dependent noradrenaline transporter (Homo sapiens) (UniProt P23975); conditions: Compound concentration 10.0 uM
KMS-11 = assay: KMS-11 cell line Proliferation assay; assay type: functional, Homo sapiens; conditions: Compound concentration 10 uM; time 3 day
JVM-2 = assay: JVM-2 cell line Proliferation assay; assay type: functional, Homo sapiens; conditions: Compound concentration 10 uM; time 3 day
OCI-Ly18 = assay: OCI Ly18 cell line Proliferation assay; assay type: functional, Homo sapiens; conditions: Compound concentration 10 uM; time 3 day
COR-L47 = assay: Cor-L47 cell line Proliferation assay; assay type: functional, Homo sapiens; conditions: Compound concentration 10 uM; time 4 day
HCC2935 = assay: HCC2935 cell line Proliferation assay; assay type: functional, Homo sapiens; conditions: Compound concentration 10 uM; time 3 day
SU-DHL-6 = assay: SuDHL6 cell line Proliferation assay; assay type: functional, Homo sapiens; conditions: Compound concentration 10 uM; time 3 day
[8] = molecular target: B2 bradykinin receptor (Homo sapiens) (UniProt P30411); assay: B2 (h) CEREP ligand profiling; conditions: filed as agonist, Compound concentration 10.0 uM
B2 bradykinin receptor (Homo sapiens), sequence (P30411 whole entry): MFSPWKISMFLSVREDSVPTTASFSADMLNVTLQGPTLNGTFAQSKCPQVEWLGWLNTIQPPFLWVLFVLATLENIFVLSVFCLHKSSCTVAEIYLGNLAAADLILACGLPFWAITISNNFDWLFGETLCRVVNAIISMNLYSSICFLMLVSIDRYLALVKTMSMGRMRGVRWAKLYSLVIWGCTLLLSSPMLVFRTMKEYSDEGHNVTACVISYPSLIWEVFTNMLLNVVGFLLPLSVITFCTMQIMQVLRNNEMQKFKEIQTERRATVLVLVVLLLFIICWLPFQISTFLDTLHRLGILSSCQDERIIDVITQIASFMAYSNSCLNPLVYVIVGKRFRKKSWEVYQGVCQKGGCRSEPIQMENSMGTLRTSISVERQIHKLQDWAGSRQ

HCC1599 = assay: HCC1599 cell line Proliferation assay; assay type: functional, Homo sapiens; conditions: Compound concentration 10 uM; time 5 day
Karpas-1106P = assay: K1106 cell line Proliferation assay; assay type: functional, Homo sapiens; conditions: Compound concentration 10 uM; time 3 day
CWR22R = assay: 22Rv1 cell line Proliferation assay; assay type: functional, Homo sapiens; conditions: Compound concentration 10 uM; time 5 day
U-937 = assay: U937 cell line Proliferation assay; assay type: functional, Homo sapiens; conditions: Compound concentration 10 uM; time 3 day
[9] = molecular target: Translocator protein (Rattus norvegicus) (UniProt P16257); assay: BZD (peripheral) CEREP ligand profiling; conditions: filed as antagonist; Compound concentration 10.0 uM
ULA = assay: ULA cell line Proliferation assay; assay type: functional, Homo sapiens; conditions: Compound concentration 10 uM; time 3 day
CA46 = assay: CA46 cell line Proliferation assay; assay type: functional, Homo sapiens; conditions: Compound concentration 10 uM; time 3 day
K562 = assay: K562 cell line Proliferation assay; assay type: functional, Homo sapiens; conditions: Compound concentration 10 uM; time 3 day
THP-1 = assay: THP-1 cell line Proliferation assay; assay type: functional, Homo sapiens; conditions: Compound concentration 10 uM; time 3 day
[10] = molecular target: Sodium-dependent dopamine transporter (Homo sapiens, UniProt Q01959); assay: GPCRScan assay: inhibition of DAT; set-up: radioligand conc. used [nm] 3.6 – 16.0, parental cells stable HEK
Sodium-dependent dopamine transporter, sequence (Q01959 whole entry): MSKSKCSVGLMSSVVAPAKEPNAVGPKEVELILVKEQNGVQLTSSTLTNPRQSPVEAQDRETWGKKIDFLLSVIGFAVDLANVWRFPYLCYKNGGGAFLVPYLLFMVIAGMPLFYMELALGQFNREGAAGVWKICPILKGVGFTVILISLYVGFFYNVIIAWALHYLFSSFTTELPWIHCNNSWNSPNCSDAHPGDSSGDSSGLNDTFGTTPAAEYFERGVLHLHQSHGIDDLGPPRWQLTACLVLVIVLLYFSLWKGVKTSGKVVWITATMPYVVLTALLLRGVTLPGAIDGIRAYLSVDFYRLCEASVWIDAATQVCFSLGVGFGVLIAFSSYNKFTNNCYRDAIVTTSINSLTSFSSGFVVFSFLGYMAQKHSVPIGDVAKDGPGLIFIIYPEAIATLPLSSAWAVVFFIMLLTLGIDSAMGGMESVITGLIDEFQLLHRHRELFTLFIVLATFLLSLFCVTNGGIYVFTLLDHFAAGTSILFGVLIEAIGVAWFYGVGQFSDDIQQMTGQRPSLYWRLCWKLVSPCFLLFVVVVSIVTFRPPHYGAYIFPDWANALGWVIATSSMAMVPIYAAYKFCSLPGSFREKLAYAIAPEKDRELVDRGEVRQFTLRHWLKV

SK-MEL-1 = assay: SKMEL1 cell line Proliferation assay; assay type: functional, Homo sapiens; conditions: Compound concentration 10 uM; time 5 day
CHL-1 = assay: CHL1 cell line Proliferation assay; assay type: functional, Homo sapiens; conditions: Compound concentration 10 uM; time 5 day
VCaP = assay: VCaP cell line Proliferation assay; assay type: functional, Homo sapiens; conditions: Compound concentration 10 uM; time 5 day
WM 266-4 = assay: WM2664 cell line Proliferation assay; assay type: functional, Homo sapiens; conditions: Compound concentration 10 uM; time 5 day
KARPAS-299 = assay: KARPAS-299 cell line Proliferation assay; assay type: functional, Homo sapiens; conditions: Compound concentration 10 uM; time 3 day
[11] = molecular target: Sodium-dependent serotonin transporter (Homo sapiens, UniProt P31645); assay: GPCRScan assay: inhibition of SERT; set-up: radioligand conc. used [nm] 1.5 – 2.0, parental cells stable HEK
Sodium-dependent serotonin transporter, sequence (P31645 whole entry): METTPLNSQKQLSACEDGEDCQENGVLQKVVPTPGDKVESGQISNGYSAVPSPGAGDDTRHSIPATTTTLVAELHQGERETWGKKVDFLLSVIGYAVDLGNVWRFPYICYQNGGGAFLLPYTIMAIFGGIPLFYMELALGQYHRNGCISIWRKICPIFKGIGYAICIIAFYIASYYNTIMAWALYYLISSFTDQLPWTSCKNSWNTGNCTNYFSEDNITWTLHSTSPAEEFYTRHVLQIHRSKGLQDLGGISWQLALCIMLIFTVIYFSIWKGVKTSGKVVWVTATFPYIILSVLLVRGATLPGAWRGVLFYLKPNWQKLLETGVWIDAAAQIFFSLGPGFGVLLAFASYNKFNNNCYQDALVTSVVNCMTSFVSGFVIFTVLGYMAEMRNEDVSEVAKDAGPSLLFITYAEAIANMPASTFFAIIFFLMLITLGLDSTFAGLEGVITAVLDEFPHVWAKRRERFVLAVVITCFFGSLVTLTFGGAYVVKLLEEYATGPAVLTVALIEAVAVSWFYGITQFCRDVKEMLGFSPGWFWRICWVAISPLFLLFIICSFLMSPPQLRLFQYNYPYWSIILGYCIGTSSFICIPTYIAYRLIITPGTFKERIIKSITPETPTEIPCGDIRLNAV

BT-20 = assay: BT-20 cell line Proliferation assay; assay type: functional, Homo sapiens; conditions: Compound concentration 10 uM; time 5 day
[12] = molecular target: Prostaglandin G/H synthase 1 (Homo sapiens) (UniProt P23219); assay: COX1(h) CEREP ligand profiling; conditions: Compound concentration 10.0 uM
Prostaglandin G/H synthase 1 (Homo sapiens), sequence (P23219 whole entry): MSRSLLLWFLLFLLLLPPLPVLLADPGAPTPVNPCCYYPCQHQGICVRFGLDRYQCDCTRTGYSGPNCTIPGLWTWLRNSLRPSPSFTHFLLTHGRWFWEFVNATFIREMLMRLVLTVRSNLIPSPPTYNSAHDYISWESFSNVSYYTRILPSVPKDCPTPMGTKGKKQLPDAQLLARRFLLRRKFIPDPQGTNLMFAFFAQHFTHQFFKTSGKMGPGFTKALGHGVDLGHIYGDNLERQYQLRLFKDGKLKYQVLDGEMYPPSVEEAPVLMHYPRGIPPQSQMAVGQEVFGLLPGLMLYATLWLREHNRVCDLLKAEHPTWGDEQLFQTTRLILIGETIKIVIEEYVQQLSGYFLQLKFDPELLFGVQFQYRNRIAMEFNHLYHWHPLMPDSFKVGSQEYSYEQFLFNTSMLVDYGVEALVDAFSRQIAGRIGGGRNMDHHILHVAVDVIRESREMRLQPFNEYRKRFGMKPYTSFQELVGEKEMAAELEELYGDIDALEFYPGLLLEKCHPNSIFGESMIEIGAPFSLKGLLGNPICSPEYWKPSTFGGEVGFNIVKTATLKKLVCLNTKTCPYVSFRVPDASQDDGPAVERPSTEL

[13] = molecular target: T1, Calcitonin-gene-related peptide receptor, CALCRL/RAMP1 (Homo sapiens); assay: Calcitonin Gene-Related Peptide CGRP1 CEREP ligand profiling; assay type: protein-complex assay; conditions: Compound concentration 10.0 uM
[14] = molecular target: Protein kinase C iota type (Homo sapiens) (UniProt P41743); conditions: Compound concentration 1000.0 nM
[15] = molecular target: Serine/threonine-protein kinase N1 (Homo sapiens) (UniProt Q16512); conditions: Compound concentration 1000.0 nM
[16] = molecular target: CREB-binding protein/Histone acetyltransferase p300 (Homo sapiens, UniProt Q09472+Q92793); assay: Inhibition of H3K27Ac (DU-145); assay type: cell-based
[17] = molecular target: Beta-2 adrenergic receptor (Homo sapiens) (UniProt P07550); assay: beta 2 (h) CEREP ligand profiling; conditions: filed as agonist, Compound concentration 10.0 uM
[18] = system: Receptor-type tyrosine-protein kinase FLT3 (Homo sapiens), P36888 [UNDEFINED MUTATION]; conditions: Compound concentration 1000.0 nM
[19] = molecular target: Neuropeptide Y receptor type 1 (Homo sapiens) (UniProt P25929); assay: Y1 (h) CEREP ligand profiling; conditions: filed as agonist, Compound concentration 10.0 uM

With `CNC(=O)Nc1ccc2c(c1)CC[C@@]21OC(=O)N(CC(=O)N(Cc2ccc(F)cc2)[C@@H](C)C(F)(F)F)C1=O` [A-485] the inhibition [1] was 0%, the “Cell Proliferation EC50” value (SU-DHL-8) was 540 nM and the “Cell Proliferation EC50” value (OPM-2) was 620 nM. For the same compound, the “Cell Proliferation EC50” value (BJAB) was 281.3 nM, the “Cell Proliferation EC50” value (RPMI-8226) was 164 nM and the “Cell Proliferation EC50” value (Rec1) was >10000 nM. For the same compound, the “Cell Proliferation EC50” value (RL) was 1047 nM, the “Cell Proliferation EC50” value (MDA-MB-157) was 4592 nM and the “Cell Proliferation EC50” value (Hs 294T) was 9000 nM. For the same compound, the inhibition [2] was -2.53%, the “Cell Proliferation EC50” value (Jurkat) was 4030 nM and the “Cell Proliferation EC50” value (HT) was >10000 nM. The inhibition [3] was -8.97%, the “Cell Proliferation EC50” value (WSU-NHL) was 1063 nM and the inhibition [4] was 7.83%. For the same compound, the “Cell Proliferation EC50” value (NU-DUL-1) was 478.1 nM, the inhibition [5] was 8% and the “Cell Proliferation EC50” value (SUD4) was 720.4 nM. For the same compound, the “Cell Proliferation EC50” value (MDA-MB-453) was 1866.4 nM, the “Cell Proliferation EC50” value (Kasumi 1) was 285 nM and the inhibition [6] was 5.6%. The “Cell Proliferation EC50” value (G-361) was 3768 nM, the “Cell Proliferation EC50” value (DU-4475) was 668.3 nM and the inhibition [7] was -3.76%. For the same compound, the “Cell Proliferation EC50” value (KMS-11) was 241 nM, the “Cell Proliferation EC50” value (JVM-2) was >10000 nM and the “Cell Proliferation EC50” value (OCI-Ly18) was 321.3 nM. The “Cell Proliferation EC50” value (COR-L47) was >10000 nM, the “Cell Proliferation EC50” value (HCC2935) was >10000 nM and the “Cell Proliferation EC50” value (SU-DHL-6) was 745.7 nM. The inhibition [8] was 0%, the “Cell Proliferation EC50” value (HCC1599) was 4852.9 nM and the “Cell Proliferation EC50” value (Karpas-1106P) was 405.1 nM. The “Cell Proliferation EC50” value (CWR22R) was 320 nM, the “Cell Proliferation EC50” value (U-937) was >10000 nM and the inhibition [9] was 72%. The “Cell Proliferation EC50” value (ULA) was 550.6 nM, the “Cell Proliferation EC50” value (CA46) was 480.9 nM and the “Cell Proliferation EC50” value (K562) was 1270 nM. For the same compound, the “Cell Proliferation EC50” value (THP-1) was 3510 nM, the Ki ([10]; read-out: Ki) was 1820 nM and the Ki ([10]; read-out: pKi (converted)) was 1780 nM. The “Cell Proliferation EC50” value (SK-MEL-1) was 571 nM, the “Cell Proliferation EC50” value (CHL-1) was 366 nM and the “Cell Proliferation EC50” value (VCaP) was 40 nM. For the same compound, the “Cell Proliferation EC50” value (WM 266-4) was 1914 nM, the “Cell Proliferation EC50” value (KARPAS-299) was >10000 nM and the Ki ([11]; read-out: Ki) was 223 nM. The Ki ([11]; read-out: pKi (converted)) was 219 nM and the “Cell Proliferation EC50” value (BT-20) was 336.5 nM.
Work on `CNC(=O)Nc1ccc2c(c1)[C@@]1(CC2)OC(=O)N(CC(=O)N(Cc2ccc(F)cc2)[C@@H](C)C(F)(F)F)C1=O` [A-486] yielded an inhibition [12] of -5%, an inhibition [13] of -10% and a residual activity [14] of 91%. The residual activity [15] was 98%, the IC50 [16] was > 10000 nM and the inhibition [17] was 1%. For the same compound, the residual activity [18] was 99% and the inhibition [19] was -10%.
